Measurements taken from publication PMC11577813, “Eurasian spruce bark beetle detects lanierone using a highly expressed specialist odorant receptor, present in several functional sensillum types” (BMC Biology, 2024).

Biological target: T1, ItypOR36 (with ItypOrco) (Ips typographus, UniProt A0AAU6S471)
T1 construct: gene OR36; heteromeric OR/Orco ligand-gated ion channel; GenBank id is for ItypOR36; with Odorant receptor coreceptor
T1 sequence (A0AAU6S471 1-390): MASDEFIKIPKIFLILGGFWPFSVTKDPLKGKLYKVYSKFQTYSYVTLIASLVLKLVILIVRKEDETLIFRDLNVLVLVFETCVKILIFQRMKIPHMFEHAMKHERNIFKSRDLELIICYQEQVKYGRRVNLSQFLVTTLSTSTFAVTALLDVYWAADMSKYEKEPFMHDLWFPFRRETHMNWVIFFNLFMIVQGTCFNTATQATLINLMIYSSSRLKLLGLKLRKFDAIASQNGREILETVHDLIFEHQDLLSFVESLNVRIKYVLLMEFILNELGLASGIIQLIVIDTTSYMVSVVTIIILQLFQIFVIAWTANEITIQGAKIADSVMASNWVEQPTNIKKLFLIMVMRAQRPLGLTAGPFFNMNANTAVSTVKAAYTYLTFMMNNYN
Assay: Fluo4-AM calcium fluorescence in HEK293 cells, dose-response
Format: cell-based
Conditions: agonist; co-expressed ItypOrco; doxycycline-induced; DPBS with 1 mM probenecid, pH 7.1

EC50: 790 nM
SMILES: CC1=CC(C)(C)C=C(O)C1=O [lanierone, 2-hydroxy-4,4,6-trimethyl-2,5-cyclohexadien-l-one]
